Patent US20200048237A1, “A Free Base Oxazine Derivative in Crystalline Form” (NOVARTIS AG, priority 2017, published 2020)

What was measured:
[1] = Drug-drug interaction study in healthy volunteers: plasma PK of Compound 1 alone and with strong CYP3A4 inducer rifampicin; assay type: in vivo, human; conditions: with rifampicin 600 mg q.d. vs Compound 1 alone
[2] = Drug-drug interaction study in healthy volunteers: plasma PK of Compound 1 alone and with strong CYP3A4 inhibitor itraconazole; assay type: in vivo, human; conditions: with itraconazole 200 mg q.d. vs Compound 1 alone
[3] = Chemical stability of crystalline Form A exposed to high temperature and/or humidity (UPLC purity, XRPD solid form); assay type: physicochemical
Protocol: The stability of crystalline Form A was tested by exposing the crystalline material to high temperature and/or humidity for at least three weeks. After storage at high temperature and/or humidity, bulk crystalline material was sampled and dissolved in acetonitrile:water (80:20) and the purity analysed in a Waters Aquity UPLC using the following conditions: […]

For `C[C@@]1(c2nc(NC(=O)c3ncc(C(F)(F)F)cc3Cl)ccc2F)CO[C@@](C)(C(F)(F)F)C(N)=N1` [Compound 1, N-(6-((3R,6R)-5-amino-3,6-dimethyl-6-(trifluoromethyl)-3,6-dihydro-2H-1,4-oxazin-3-yl)-5-fluoropyridin-2-yl)-3-chloro-5-(trifluoromethyl)picolinamide], the “Decrease of mean AUC of Compound 1” value [1] was 5-6 fold, the “Decrease of mean Cmax of Compound 1” value [1] was 2.5 fold and the “Increase of mean AUC of Compound 1” value [2] was 2-3 fold. The “Increase of mean Cmax of Compound 1” value [2] was 25%.

With `C[C@@]1(c2nc(NC(=O)c3ncc(C(F)(F)F)cc3Cl)ccc2F)CO[C@@](C)(C(F)(F)F)C(N)=N1` [Form A, N-(6-((3R,6R)-5-amino-3,6-dimethyl-6-(trifluoromethyl)-3,6-dihydro-2H-1,4-oxazin-3-yl)-5-fluoropyridin-2-yl)-3-chloro-5-(trifluoromethyl)picolinamide] the “Solid State Form” value ([3]; RT, exposure time 0) was “Crystalline” and the “Thermodynamic stability among polymorphs” value ([3]; compared with Form B, hydrate Form HA and amorphous form) was “most thermodynamically stable polymorph”.

For `C[C@@]1(c2nc(NC(=O)c3ncc(C(F)(F)F)cc3Cl)ccc2F)CO[C@@](C)(C(F)(F)F)C(N)=N1` [Form B, N-(6-((3R,6R)-5-amino-3,6-dimethyl-6-(trifluoromethyl)-3,6-dihydro-2H-1,4-oxazin-3-yl)-5-fluoropyridin-2-yl)-3-chloro-5-(trifluoromethyl)picolinamide], the “Solid form stability by XRPD analysis” value ([3]; same conditions as Table 12 (high temperature and/or humidity)) was “conversion into Form A occurred”.
